In ChEMBL document CHEMBL1687864, “Carijodienone from the octocoral Carijoa multiflora. A spiropregnane-based steroid” (2011) one finds MIC data, which are given here for 2 molecules.

Holding throughout (type): functional
For assay [1], the system named is Staphylococcus aureus. Kind of assay: Antibacterial activity against Staphylococcus aureus by broth macrodilution method.
In assay [2] the test system is Salmonella. The experiment in a line: Antibacterial activity against Salmonella by broth macrodilution method.
The test system of assay [3] is Escherichia coli. Kind of assay: Antibacterial activity against Escherichia coli by broth macrodilution method.
For assay [4], the system named is Bacillus cereus. The experiment in a line: Antibacterial activity against Bacillus cereus by broth macrodilution method.
Assay [5] has as its system Enterococcus faecalis. Kind of assay: Antibacterial activity against Enterococcus faecalis by broth macrodilution method.
In assay [6] the test system is Klebsiella pneumoniae. Kind of assay: Antibacterial activity against Klebsiella pneumoniae by broth macrodilution method.
For assay [7], the system named is Proteus mirabilis. Kind of assay: Antibacterial activity against Proteus mirabilis by broth macrodilution method.

Values after ≈ are worked out from the molar mass of the structure shown. A value given as a limit tells only on which side of the number the result lay.

One may read the MIC as the smallest concentration in the dilution series that meets the test's criterion for growth inhibition. High values mean weaker potency, low ones greater potency. As to `C=C[C@H]1CC[C@H]2[C@@H]3CCC4=CC(=O)C=C[C@]4(C)[C@H]3CC[C@]12C`, the MIC in assay [1], in assay [2], in assay [3], in assay [4], in assay [5] and in assay [6] was over 40 µg/mL in each case. This molecule registered an MIC in assay [7] of over 40 µg/mL.

For the molecule `C=C[C@H]1CC[C@H]2[C@@H]3CC[C@@]4(C=CC(=O)C=C4C)[C@H]3CC[C@]12C` [CARIJODIENONE], the MIC in assay [4] was 6 µg/mL (≈ 20.2 µM); in assay [6] it was 5 µg/mL (≈ 16.9 µM).
